Reference: ChEMBL document CHEMBL1141386, “Metabolites from the Lichen Ochrolechia parella growing under two different heliotropic conditions” (J Nat Prod, 2007)

Tested on: B16
Test: Cytotoxicity against murine B16 cells by MTT assay
Type: cell-based
Conditions: Mus musculus

## CCCCCC(=O)Cc1cc(O)cc2c1C(=O)Oc1cc(O)c(C(=O)O)c(CC(=O)CCCCC)c1O2
  IC50: 10.3 µM

## COc1cccc2c1C(=O)c1c(O)c3c(c(O)c1C2=O)C[C@@](O)(C(=O)CO)C[C@@H]3O[C@H]1C[C@H](N)[C@H](O)[C@H](C)O1 [DOXORUBICIN]
  IC50: 0.1 µM

## CC(C)[C@@H](C)/C=C/[C@@H](C)[C@H]1CC[C@@H]2[C@]1(C)CC[C@H]1[C@]23C=C[C@]2(C[C@@H](O)CC[C@]12C)OO3 [ERGOSTEROL PEROXIDE]
  IC50: 77.9 µM

## Cc1cc(O)cc2c1C(=O)Oc1cc3c(c(O)c1O2)C(=O)OC3 [VARIOLARIC ACID]
  IC50: 38.7 µM
